From paper PMC3643963, “Enhancement of Proteolytic Activity of a Thermostable Papain-Like Protease by Structure-Based Rational Design” (PLoS ONE, 2013)
pIC50: −log10 of the molar value.

How the values were obtained:
Test in all cases: residual activity, pNA release at […] nm
Format in all cases: biochemical
Details in all cases: read-out: IC50 against E-64
[1] = biological target: Ervatamin-C (Erv-C) (Tabernaemontana divaricata, UniProt A8DS38)
[2] = biological target: Ervatamin-C (Erv-C) (Tabernaemontana divaricata, UniProt A8DS38, A200Y/S165T)
Sequence of Ervatamin-C (Erv-C) (Tabernaemontana divaricata, UniProt A8DS38, A200Y/S165T) (A8DS38 134-341 S165T/A200Y): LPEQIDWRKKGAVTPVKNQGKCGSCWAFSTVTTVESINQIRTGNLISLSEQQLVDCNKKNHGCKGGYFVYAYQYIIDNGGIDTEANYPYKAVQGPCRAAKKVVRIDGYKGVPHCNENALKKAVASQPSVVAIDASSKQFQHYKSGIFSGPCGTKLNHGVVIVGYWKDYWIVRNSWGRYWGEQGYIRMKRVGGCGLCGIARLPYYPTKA

[3] = biological target: Ervatamin-C (Erv-C) (Tabernaemontana divaricata, UniProt A8DS38, A200Y)
Sequence of Ervatamin-C (Erv-C) (Tabernaemontana divaricata, UniProt A8DS38, A200Y) (A8DS38 134-341 A200Y): as the sequence (A8DS38 134-341 S165T/A200Y) above, with T32S counted along it

Sequence of Ervatamin-C (Erv-C) (Tabernaemontana divaricata, UniProt A8DS38) (A8DS38 134-341): as the sequence (A8DS38 134-341 S165T/A200Y) above, with T32S, Y67A counted along it

## CC(C)C[C@H](NC(=O)[C@H]1O[C@@H]1C(=O)O)C(=O)NCCCCN=C(N)N [E-64]
[1]
  pIC50: 6.46
[2]
  pIC50: 6.77
[3]
  pIC50: 6.60
